Experimental data taken from BigSolDB 2.1.

Cc1nc2cc(N)ccc2s1
solubility (mole fraction)
Conditions | 288.5 K | 293.5 K | 298.5 K | 303.5 K | 308.5 K | 313.5 K | 318.5 K | 323.5 K | 328.5 K
in ethanol | 0.00125 | 0.00129 | 0.00156 | 0.00164 | 0.00174 | 0.00194 | 0.0022 | 0.00253 | 0.00284
in water | 0.000191 | 0.000269 | 0.000311 | 0.000491 | 0.000534 | 0.000745 | 0.000872 | 0.000937 | 0.00113
